Columns and labels:
foreskin cells [1] = test: Reprogramming of foreskin fibroblasts to iPS cells; type: cell-based, human
Procedure: Available reprogramming protocols include incubation of the cells in FBS in the first several days after viral transduction or electroporation, prior to switching the cells to UM100 (U.S. Pat. No. 7,439,064, incorporated herein as if set forth in its entirety) or CM. The simplified media described in previous Examples were tested for their ability to support reprogramming.
To determine if DF5S-based media can be used for viral-free iPS cell derivation, foreskin cells were reprogrammed using a viral-free episomal vector, as described in Yu et al., Science 324:797 (2009), incorporated herein by reference as if set forth in its entirety, at hypoxic conditions (O5C10).
Plasmid combinations #6 and #19 were used for the reprogramming. In order to enhance the plasmid entry into the nucleus, ENBA mRNA was electroporated along with plasmid DNA. Around one million cells were transferred onto two 6-well plates in DF5SFeC for 5 days. Medium was then switched to DF5SFe for another 18-25 days. Cells of some of the wells were passaged for a second time using a 1:6 ratio at different time points.

human fibroblasts = test: Reprogramming efficiency of human fibroblasts in E8-based medium; type: cell-based; settings: E8 versus MEF feeder cells or TeSR; butyrate 100 μM with or without TGF-β
H1 cells [2] = test: Cloning efficiency of H1 cells; type: cell-based, human
Procedure: FIG. 2 A-F illustrate optimization of human ES cell and iPS cell culture conditions with DF5S. […] Cell survival was examined at 24 hours and 124 hours. […] DF5S trFe indicates DF5S media to which holotransferrin was added. FIG. 2E illustrates the cloning efficiency of H1 cells cultured in various media in the presence of HA100 (10 μM, 24 hours), blebbistatin (10 μM, 4 hours), or Y27632 (10 μM, 24 hours), compared to cloning efficiency in the absence of these factors (control). Asterisks indicate p<0.05. FIG. 2F illustrates cloning efficiency of H1 cells in conditioned medium (CM), CM with ROCK inhibitor (HA100), TeSR with ROCK inhibitor, and E8 with ROCK inhibitor in normoxic (dark gray bars) or hypoxic (light gray bars) conditions. Error bars indicate the standard error of the mean; asterisks indicate p<0.05.
To determine cloning efficiency at various oxygen and CO2 concentrations, 500 cells were seeded into each well. Even at low oxygen, cloning efficiency was too low (<2%) to determine effects of various conditions on cloning. HA100, a ROCK inhibitor known to increase cloning efficiency, was used to increase cloning efficiency for testing oxygen and CO2 concentrations. Conditioned medium (CM), known to be the best medium for cloning, was used as control.
The cells maintained a normal karyotype after more than 25 passages.

iPS cells = test: Cloning efficiency of iPS cells; type: cell-based, human; settings: about 500 cells per well, in the presence of HA100, DF5S-based media versus TeSR or CM
Procedure: To determine how DF5S affects cloning efficiency, two iPS cell lines were grown in DF5S and plated at cloning density (approximately 500 cells per 12-well plate well) in the presence of HA100. […] To identify such factor, individual TeSR™ components were added individually to DF5S and tested for effect on cloning efficiency.

foreskin cells [3] = test: Foreskin cell growth in DF5SFe-based media; parameters: species or system human
Procedure: To determine growth factors that can help primary foreskin cell growth, individual growth factors contained in FBS were tested. The FGF family of growth factors has several members, one or more of which is commonly used for fibroblast culture. DF5SFe contains 100 ng/ml zebrafish recombinant FGF2. Each FGF family member was tested for its ability to support foreskin cell growth. Foreskin cells were aliquoted into the well of culture plates and incubated for 24 hours in DF5SFe minus FGF. Individual FGF types were added at 100 ng/ml for 96 h.

H1 ES cells [4] = test: Short term growth / proliferation after passaging; type: cell-based, human; settings: for cell proliferation after passaging: factor added to DMEM/F12, NaHCO3, insulin and FGF, L-ascorbic acid 64 mg/L
Procedure: (§1) Five-hundred micro liter of various test media was loaded into each well of 12-well plates prior to the addition of cells. Adherent pluripotent cells were dissociated with TrypLE (Invitrogen) for 5 minutes or until fully detached from the culture plates. TrypLE was neutralized by adding an equal volume of media to the culture. The cells were counted, washed, and resuspended in fresh media at a concentration of 300,000 to 1,000,000 cells/ml. Approximately 100 μl of this cell solution was added into each well of the 12-well plates and the cells were incubated at 37° C. with 5% O2 and 10% CO2. Cells were again dissociated at various time points using 0.4 ml TrypLE, which was subsequently neutralized with equal volumes of 10% FBS in DMEM. The cells were counted by flow cytometry. 5000 count bright beads were added to each sample as internal control (approximately 200 beads were counted for each sample). All experiments were performed in triplicates.
TeSR medium contains six growth factors, in addition to those present in the basal medium, fibroblast growth factor (FGF), transforming growth factor beta (TGF-β), γ-aminobutyric acid (GABA), pipecolic acid, lithium chloride (LiCl), and insulin (Table 1). A basic nutrient medium (NM) was created containing all TeSR™ components with the exception of these six growth factors. About 2×10^5 H1 ES cells were dissociated and plated on Matrigel. The survival index was determined after 24 h. […] Thus, NM supplemented with FGF and Insulin supports human ES cell culture. Twelve different basal nutrient media supplemented as described above were able to support cell survival and growth (FIG. 1E).
NM contains 11 nutritional components, i.e., DMEM/F12, trace elements B, trace elements C, L-ascorbic acid, thiamine, selenium, L-glutamine, BSA, BME, sodium bicarbonate (NaHCO3), and transferrin (Table 1). […]
H1 cells grew faster in the DF5S medium compared to cells grown in TeSR™ (FIGS. 1C and 2A). […] To increase assay sensitivity only 5,000 cells were seeded in each well and analyzed for survival (24 h) and proliferation (124 h). […]

H1 cells [5] = test: Extended passage of cells in simplified media; type: cell-based, human; settings: DF5, or nutritional factor added individually to DF5
H1 ES cells [6] = test: ES cell survival in mTeSR without insulin; type: cell-based, human; settings: for cell survival: 30 ng/ml added at 0 hour; for cell survival, dosage response: low concentration (e.g., 3 ng/ml), 24 hours
Procedure: Pluripotent cell survival assays were carried out as described in Example 1. Media tested included mTeSR and mTeSR […]. IGF1R is known to be activated by insulin, IGF1 and IGF2 (Nguyen et al., Reproduction 134:41-49 (2007)). Accordingly, the inventors designed and carried out experiments to test how IGF1 or IGF2 could affect ES cell survival. Individualized H1 ES cells were plated in mTeSR™ with or without insulin (Sigma). IGF1 (30 ng/ml) and IGF2 (30 ng/ml) were added to media at 0 hour. […] Dosage response assays were conducted to determine useful concentrations of IGF1, IGF2, and Long-IGF-1 (Sigma) in pluripotent cell maintenance medium. Individualized H1 ES cells were plated in mTeSR without insulin, IGF1, IGF2 and Long-IGF1 were added at 0 hour, and cell survival was measured after 24 hours.

H1 ES cells [7] = test: ES cell proliferation after insulin replacement; type: cell-based, human; settings: insulin replaced after 24 hours with 30 ng/ml; feeder-free culture
Procedure: To determine whether IGF1 and IGF2 are sufficient to support ES cell proliferation in the absence of insulin, individualized H1 ES cells were plated onto Matrigel plates in TeSR (with insulin) for the first 24 hours. Then insulin was either removed or replaced with IGF1 (30 ng/ml) and IGF2 (30 ng/ml). Cell numbers were measured at specific time points, and the fold change in cell numbers was normalized to the cell counts at the time when insulin was first replaced.

H1 ES cells [8] = test: Pluripotent cell survival assay (24 h survival index after dissociation); type: cell-based, human; settings: basic nutrient medium NM with or without additions, H1 ES cells on Matrigel
Procedure: as §1, with “triplicates. TeSR medium contains six growth factors, in addition to those present in the basal medium, fibroblast growth factor (FGF), transforming growth factor beta (TGF-β), γ-aminobutyric acid (GABA), pipecolic acid, lithium chloride (LiCl), and insulin (Table 1). A basic nutrient medium (NM) was created containing all TeSR™ components with the exception of these six growth factors. […] The survival index was determined after 24 h. […]” for “triplicates.”

[9] = in E8, HA100 10 μM 24 h, blebbistatin 10 μM 4 h, Y27632 10 μM 24 h, versus control

CCCC(=O)[O-].[Na+] [Butyrate, sodium butyrate]
number of colonies during reprogramming (foreskin cells [1]; foreskin fibroblasts): did not increase the number of colonies
ratio of true iPS cell to non-iPS cell colonies (foreskin cells [1]; foreskin fibroblasts): improved the ratio of true iPS cell to non-iPS cell colonies significantly
reprogramming efficiency (foreskin cells [1]; reagent added to reprogramming media): improved reprogramming efficiency
reprogramming efficiency (human fibroblasts): further enhanced reprogramming efficiency

O=S(=O)(c1cccc2cnccc12)N1CCNCC1 [HA100]
cloning efficiency (H1 cells [2]; [9]): increased cloning efficiency
cloning efficiency (H1 cells [2]; in conditioned medium (CM), at both O5C10 and O15C5, 500 cells per well): significantly improved cloning efficiency

C[C@]12CCC(=O)C=C1CC[C@@H]1[C@@H]2[C@@H](O)C[C@@]2(C)[C@H]1CC[C@]2(O)C(=O)CO [Hydrocortisone, reference compound]
cloning efficiency (iPS cells): improved iPS cell cloning efficiency
foreskin cell growth (foreskin cells [3]; added to DF5SFe to replace FBS): improved cell growth significantly

O=C(O)[C@@H]1C[C@@H](O)CN1 [Hydroxyproline]
cell proliferation after passaging (H1 ES cells [4]): could partially substitute for L-ascorbic acid

O=C1O[C@H]([C@@H](O)CO)C(O)=C1O [L-ascorbic acid]
cell proliferation after passaging (H1 ES cells [4]): necessary for cell proliferation after passaging

C[C@@H](N)[C@H]1CC[C@H](C(=O)Nc2ccncc2)CC1 [Y27632]
cloning efficiency (H1 cells [2]; [9]): increased cloning efficiency

Cc1ccc2c(c1)C(=O)C1(O)CCN(c3ccccc3)C1=N2 (stereo not shown) [blebbistatin]
cloning efficiency (H1 cells [2]; [9]): increased cloning efficiency

[Se] [selenium]
cell growth / proliferation through multiple passages (H1 cells [5]): sufficient to support cell proliferation through multiple passages

FGF1: FGF family member growth factor
foreskin cell growth (foreskin cells [3]; individual FGF added at 100 ng/ml for 96 h to DF5SFe minus FGF): supported foreskin cell growth most effectively

IGF1: ligand of the IGF1R receptor
cell survival (H1 ES cells [6]): rescued cell survival in the absence of insulin
cell survival, dosage response (H1 ES cells [6]): can support hES cell survival in the absence of insulin
cell proliferation (H1 ES cells [7]): able to support cell proliferation

IGF2: ligand of the IGF1R receptor
cell survival (H1 ES cells [6]): rescued cell survival in the absence of insulin
cell survival, dosage response (H1 ES cells [6]): can support hES cell survival in the absence of insulin
cell proliferation (H1 ES cells [7]): able to support cell proliferation

holo-transferrin
cloning efficiency (H1 cells [2]; H1 cells in DF5S medium, transferrin added): noticeable improvement of cloning efficiency
cloning efficiency (H1 cells [2]; [9]): further increased
cloning efficiency (iPS cells): cloning efficiency comparable to that using TeSR™

insulin
cell survival after dissociation (survival index) (H1 ES cells [8]): cell survival similar to that observed with TeSR™
cell growth (H1 ES cells [4]; added to NM, insulin 20 ug/ml, FGF2 100 ng/ml, 96 h, compared with TeSR): did not support cell growth
